This note sets out measurements from patent US8796259B2, “N3-heteroaryl substituted triazoles and N5-heteroaryl substituted triazoles useful as axl inhibitors” (Rigel Pharmaceuticals, Inc., priority 2006, dated 2014).

This experiment addresses T1, Axl (Homo sapiens, UniProt P30530).
T1 construct: endogenous in cells; host or cells: HeLa cells
T1 sequence (P30530 26-894): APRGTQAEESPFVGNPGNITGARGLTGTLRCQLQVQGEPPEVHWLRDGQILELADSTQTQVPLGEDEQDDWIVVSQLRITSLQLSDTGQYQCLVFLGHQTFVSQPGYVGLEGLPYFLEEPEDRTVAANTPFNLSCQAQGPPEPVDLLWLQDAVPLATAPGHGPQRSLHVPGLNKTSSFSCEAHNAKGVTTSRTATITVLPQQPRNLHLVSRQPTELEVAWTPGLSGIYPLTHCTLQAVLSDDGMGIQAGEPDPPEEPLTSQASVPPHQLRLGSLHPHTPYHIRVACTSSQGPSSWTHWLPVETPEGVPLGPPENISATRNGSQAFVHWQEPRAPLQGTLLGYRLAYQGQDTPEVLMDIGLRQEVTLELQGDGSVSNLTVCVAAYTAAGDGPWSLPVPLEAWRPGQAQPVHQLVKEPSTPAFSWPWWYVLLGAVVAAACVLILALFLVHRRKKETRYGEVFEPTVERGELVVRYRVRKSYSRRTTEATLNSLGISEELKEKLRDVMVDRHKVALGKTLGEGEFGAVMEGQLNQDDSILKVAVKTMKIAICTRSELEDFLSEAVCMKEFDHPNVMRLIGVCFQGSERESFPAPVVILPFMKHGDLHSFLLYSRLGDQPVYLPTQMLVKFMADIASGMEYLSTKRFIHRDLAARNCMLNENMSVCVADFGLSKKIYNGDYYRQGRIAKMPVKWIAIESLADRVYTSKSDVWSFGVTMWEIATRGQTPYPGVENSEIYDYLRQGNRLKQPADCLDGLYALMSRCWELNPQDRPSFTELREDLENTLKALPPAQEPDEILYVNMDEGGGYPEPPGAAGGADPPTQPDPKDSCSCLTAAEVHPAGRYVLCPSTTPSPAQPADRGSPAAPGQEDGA
Put plainly: Phospho-Akt in-cell Western assay (inhibition of Axl activity, Axl-antibody cross-linking stimulation). It is filed as cell-based. Particulars: Hela cells, phospho-Akt readout; compounds of formula (Ia), Table 1. The protocol: The compounds of the invention were tested in the following assay for their ability to inhibit Axl activity.
Phospho-Akt in-Cell Western Assay
• Cell culture plate: 96 well assay plate (Corning 3610), white, clear bottom, tissue-culture treated. • Cells: Hela cells. • Starvation medium: For Axl stimulation: 0.5% FCS (fetal calf serum) in DMEM, plus Axl/Fc (extracellular domain of AXL fused to immunoglobulin Fc region) (R&D, 154-AL) 500 ng/mL. • For EGF (epidermal growth factor) stimulation: 0.5% FCS in DMEM (Dulbecco's modified Eagles medium). • Poly-L-Lysine 0.01% solution (the working solution): 10 μg/ml, dilute In PBS (phosphate buffered saline). • Axl antibody cross-linking: • 1st: Mouse anti-Axl (R&D, MAB154). • 2nd: Biotin-SP-conjugated AffiniPure goat anti-mouse IgG (H+L) (Jackson ImmunoResearch #115-065-003). • Fixing buffer: 4% formaldehyde in PBS. • Wash buffer: 0.1% TritonX-100 in PBS. • Quenching buffer: 3% H2O2, 0.1% Azide in wash buffer, Azide and hydrogen peroxide (H2O2) are added fresh. • Blocking buffer: 5% BSA in TBST (tris buffered saline plus 0.1% Tween 20). • Primary antibody: Rabbit anti-human Phospho-Akt antibody (Cell Signaling 9271): 1×250 diluted in blocking buffer. • Secondary antibody: HRP (horse radish peroxidase)-conjugated Goat anti-Rabbit secondary, stock solution: Jackson ImmunoResearch (Goat anti-Rabbit HRP, #111-035-144) 1:1 diluted in glycerol, store at −20° C. The working solution: 1×2000 dilution of stock in blocking buffer. • Chemiluminescent working solution (Pierce, 37030): SuperSignal ELISA (enzyme linked immunosorbant assay) Pico Chemiluminescent substrate. • Crystal Violet solution: Stock: 2.5% Crystal violet in methanol, filtered and kept at ambient temperature. The working solution: dilute the stock 1:20 with PBS immediately before use.
10% SDS: working solution: 5% SDS (sodium dodecylsulfate), diluted in PBS
A 96 well TC (tissue culture treated) plate was coated with 10 μg/mL poly-L-Lysine at 37° C. for 30 min, washed twice with PBS, and air-dried for 5 minutes before cells were added. Hela cells were seeded at 10,000 cells/well and the cells were starved in 100 μL starvation medium containing Axl/Fc for 24 hrs.
The cells were pre-treated with test compounds by adding 100 μL of 2× test compound to the starvation medium on the cells. The cells were incubated at 37° C. for 1 hr before stimulation.
The cells were stimulated by Axl-antibody cross-linking as follows: A 5×1st/2nd Axl antibody mixture was made (37.5 μg/mL 1st/100 μg/mL 2 nd) in starvation medium and nutated at 4° C. with thorough mixing for 1-2 hours for clustering. The resulting mix was warmed to 37° C. 50 μL of 5×Axl 1st/2nd of antibody cluster was added to the cells and the cells were incubated at 37° C. for 5 min.
After 5 minutes stimulation, the plate was flicked to remove medium and the plate was tapped onto paper towels. Formaldehyde (4.0% in PBS, 100 μL) was added to fix the cells and the cells were incubated at ambient temperature for 20 min without shaking.
The cells were washed with a plate washer buffer to remove the formaldehyde solution. The plate was flicked to removed excess wash buffer and tapped onto paper towels. Quenching buffer (100 μL) was added to each well and the cells were incubated at ambient temperature for 20 minutes without shaking.
The cells were washed with a plate washer buffer to remove the quenching buffer. Blocking buffer (100 μL) was added and the cells were incubated at ambient temperature for at least an hour with gentle shaking.
The cells were washed with a plate washer buffer and diluted primary antibody (50 μL) was added to each well (blocking buffer was added to the negative control wells instead). The plates were incubated overnight at 4° C. with gentle shaking.
The wash buffer was removed, diluted secondary antibody (100 μL) was added, and the cells were incubated at ambient temperature for 1 hour with gentle shaking. […]

`Cc1cc(Nc2nc(N)n(-c3nc4ccccc4c4ccccc34)n2)cnc1N1CCC(N2CCCC2)CC1` [compound 43, 1-(phenanthridin-6-yl)-N^3-(6-(4-(pyrrolidin-1-yl)piperidin-1-yl)-5-methylpyridin-3-yl)-1H-1,2,4-triazole-3,5-diamine] registered a concentration for half-maximal inhibition (IC50) of less than 1000 nM.
The figure for `CCN(CC)C1CCN(c2ccc(Nc3nc(N)n(-c4nc(Cl)nc5c(C)csc45)n3)cn2)C1` (centres unmarked) [compound 44, 1-(2-chloro-7-methylthieno [3,2-d]pyrimidin-4-yl)-N^3-(6-(3-diethylamino-pyrrolidin-1-yl)pyridin-3-yl)-1H-1,2,4-triazole-3,5-diamine] is less than 1000 nM.
Then `CCN(CC)C1CCN(c2ccc(Nc3nc(N)n(-c4ncnc5cc(OC)c(OC)cc45)n3)cn2)C1` (centres unmarked) [compound 45, 1-(6,7-dimethoxy-quinazoline-4-yl)-N^3-(6-(3-diethyl-amino-pyrrolidin-1-yl)pyridin-3-yl)-1H-1,2,4-triazole-3,5-diamine], with less than 1000 nM.
The figure for `Cc1csc2c(-n3nc(Nc4ccc(N5CCCN(C6CC7CCC6C7)CC5)nc4)nc3N)nc(Cl)nc12` (centres unmarked) [compound 46, 1-(2-chloro-7-methylthieno [3,2-d]pyrimidin-4-yl)-N^3-(6-(4-(bicyclo[2.2.1]heptan-2-yl)-1,4-diazepan-1-yl)pyridin-3-yl)-1H-1,2,4-triazole-3,5-diamine] is less than 1000 nM; for `COc1cc2ncnc(-n3nc(Nc4ccc(N5CCCN(C6CC7CCC6C7)CC5)nc4)nc3N)c2cc1OC` (centres unmarked) [compound 47, 1-(6,7-dimethoxy-quinazoline-4-yl)-N^3-(6-(4-(bicyclo [2.2.1]heptan-2-yl)-1,4-diazepan-1-yl)pyridin-3-yl)-1H-1,2,4-triazole-3,5-diamine] it is less than 1000 nM.
As to `Cc1csc2c(-n3nc(Nc4ccc(N5CCN(CC6CC6)CC5)nc4)nc3N)nc(Cl)nc12` [compound 48, 1-(2-chloro-7-methylthieno [3,2-d]pyrimidin-4-yl)-N^3-(6-(4-cyclopropyl-methyl-piperazin-1-yl)pyridin-3-yl)-1H-1,2,4-triazole-3,5-diamine], the IC50 is less than 1000 nM.
In turn, `Nc1nc(Nc2ccc(N3CCN(CC4CC4)CC3)nc2)nn1-c1ccc(C(F)(F)F)cn1` [compound 49, 1-(5-trifluoro-methylpyridin-2-yl)-N^3-(6-(4-cyclopropyl-methyl-piperazin-1-yl)pyridin-3-yl)-1H-1,2,4-triazole-3,5-diamine] registered a 50% inhibitory concentration (IC50) of less than 1000 nM.
The figure for `Cc1csc2c(-n3nc(Nc4cnc5c(c4)CN(CCN(C)C)CC5)nc3N)nc(Cl)nc12` [compound 50, 1-(2-chloro-7-methylthieno [3,2-d]pyrimidine-4-yl)-N^3-(6-(2-dimethyl-aminoethyl)-5,6,7,8-tetrahydro-1,6-naphthyridin-3-yl)-1H-1,2,4-triazole-3,5-diamine] is less than 1000 nM.
Then `Cc1csc2c(-n3nc(Nc4cnc5c(c4)CC(NC4CCN(C)CC4)CC5)nc3N)nc(Cl)nc12` (centres unmarked) [compound 51, 1-(2-chloro-7-methylthieno [3,2-d]pyrimidine-4-yl)-N^3-(6-(1-methyl-piperidin-4-ylamino)-5,6,7,8-tetrahydro-quinolin-3-yl)-1H-1,2,4-triazole-3,5-diamine], with less than 1000 nM.
Consider `Cc1csc2c(-n3nc(Nc4cnc5c(c4)CN(C4CCCC4)CC5)nc3N)nc(Cl)nc12` [compound 52, 1-(2-chloro-7-methylthieno [3,2-d]pyrimidine-4-yl)-N^3-(6-cyclopentyl-5,6,7,8-tetrahydro-1,6-naphthyridin-3-yl)-1H-1,2,4-triazole-3,5-diamine], for which the IC50 is less than 1000 nM.
The figure for `Cc1cc(Nc2nc(N)n(-c3nccc4occc34)n2)cnc1N1CCC(N2CCCC2)CC1` [compound 53, 1-(furo[3,2-c]pyridine-4-yl)-N^3-(6-(4-(pyrrolidin-1-yl)piperidin-1-yl)-5-methylpyridin-3-yl)-1H-1,2,4-triazole-3,5-diamine] is less than 1000 nM; for `Cc1cc(Nc2nc(N)n(-c3ncnc4sc5c(c34)CCC5)n2)cnc1N1CCC(N2CCCC2)CC1` [compound 54, 1-(6,7-dihydro-5H-cyclopenta [4,5]thieno[2,3-d]pyrimidin-4-yl)-N^3-(6-(4-(pyrrolidin-1-yl)piperidin-1-yl)-5-methyl-pyridin-3-yl)-1H-1,2,4-triazole-3,5-diamine] it is less than 1000 nM; for `Cc1nc(-n2nc(Nc3cnc(N4CCC(N5CCCC5)CC4)c(C)c3)nc2N)c2ccccc2n1` [compound 55, 1-(2-methyl-quinazolin-4-yl)-N^3-(6-(4-(pyrrolidin-1-yl)piperidin-1-yl)-5-methylpyridin-3-yl)-1H-1,2,4-triazole-3,5-diamine] it is less than 1000 nM.
Then `Cc1cc(Nc2nc(N)n(-c3ncnc4ccc(F)cc34)n2)cnc1N1CCC(N2CCCC2)CC1` [compound 56, 1-(6-fluoro-quinazolin-4-yl)-N^3-(6-(4-(pyrrolidin-1-yl)piperidin-1-yl)-5-methylpyridin-3-yl)-1H-1,2,4-triazole-3,5-diamine], with less than 1000 nM; and `Cc1csc2c(-n3nc(Nc4ccc(N5CC6CN(C7CC8CCC7C8)CC6C5)nc4)nc3N)nc(Cl)nc12` (centres unmarked) [compound 57, 1-(2-chloro-7-methylthieno [3,2-d]pyrimidine-4-yl)-N^3-(6-(5-bicyclo[2.2.1]heptan-2-yl-octahydropyrrol [3,4-c]pyrrolyl)pyridine-3-yl)-1H-1,2,4-triazole-3,5-diamine], with less than 1000 nM; and `COc1cc2ncnc(-n3nc(Nc4ccc(Br)nc4)nc3NC(=NC#N)Nc3ccc(Br)nc3)c2cc1OC` [compound 58, 1-(6,7-dimethoxy-quinazoline-4-yl)-N^3-(6-bromopyridin-3-yl)-5-(3-(6-bromopyridin-3-yl)-2-cyano-guanadino)-1H-1,2,4-triazole-3-amine], with 1000 to 10000 nM.
The figure for `COc1cc2ncnc(-n3nc(Nc4ccc(Br)nc4)nc3N)c2cc1OC` [compound 59, 1-(6,7-dimethoxy-quinazoline-4-yl)-N^3-(6-bromopyridin-3-yl)-1H-1,2,4-triazole-3,5-diamine] is greater than 20000 nM.

Usually IC50 stands for the concentration needed to halve the response being measured. Read a high IC50 as weaker potency in that assay.
